Tests used:
[1] = one year treatment, chronic pulmonary fibrosis; cited from earlier work
[2] = Gamma-glutamyl transferase observed in patients receiving pirfenidone; format: in vivo; details: some patients receiving pirfenidone
Source text: In some embodiments, the biomarker of liver function is alanine transaminase, aspartate transaminase, bilirubin, and/or alkaline phosphatase. […] In any of the embodiments described herein, biomarkers of liver function can exclude gamma-glutamyl transferase. In another embodiment, the abnormal level of alanine transaminase, aspartate transaminase, or alkaline phosphatase is greater than about 2.5-fold increased compared to the upper limit of normal (ULN). In a related embodiment, the abnormal level of alanine transaminase, aspartate transaminase, or alkaline phosphatase is greater than about 2.5- to about 5-fold increased compared to the upper limit of normal (ULN), i.e. a “liver function Grade 2 abnormality”. In some embodiments, the abnormal level of bilirubin is greater than about 1.5- to about 3-fold increased compared to the upper limit of normal (ULN), i.e., a “liver function Grade 2 abnormality”.

[3] = Study of 345 idiopathic pulmonary fibrosis patients on pirfenidone 2403 mg/day: liver function test (AST/ALT) abnormalities and response to dosing regimen; format: in vivo; design: key to Grade of AST or ALT abnormality after dose modification / Grade of ALT after dose modification / Grade of liver function test at resolution: 0: WNL; 1: >ULN-2.5 × ULN; >2.5-5 × ULN; 3: >5-20 × ULN; 4: >20 × ULN
Protocol: Patients begin pirfenidone treatment by receiving escalating doses of pirfenidone over a period of 15 days until the full maintenance dose is reached. Specifically, from days 1 to 7, patients are administered one capsule of 267 mg pirfenidone three times per day. During days 8 to 14, patients receive two capsules of 267 mg pirfenidone three times per day. From day 15 onward, patients are treated with three capsules of 267 mg pirfenidone three times per day. Pirfenidone is administered orally, and each dose should be taken with food. If the patient is unable to eat, then the pirfenidone dose should be taken with milk or juice (excluding grapefruit juice).
Once the full maintenance dose is reached, pirfenidone is administered orally to patients three times per day to provide a daily dose of 2403 mg pirfenidone. Each of the three doses of 801 mg pirfenidone includes three capsules of 267 mg pirfenidone each. The contents of the pirfenidone 267 mg capsules are pirfenidone (82.15%); croscarmellose sodium (8.15%); microcrystalline cellulose (7.39%); povidine, USP, EP (1.85%); and magnesium stearate (0.46%).
Patients are treated with pirfenidone for up to 72 weeks. Some patients are treated longer than 72 weeks. At weeks 2, 4, 6, 12, and every 12 weeks (±2 weeks) thereafter during the treatment period, with the exception of week 72 and the treatment completion visit, patients are examined and histories are collected as detailed in the steps below.
4. Clinical laboratory tests are performed, including hematology, serum chemistries, pregnancy tests for women of childbearing capacity, and urinalysis with microscopic examination.
Patients were treated with pirfenidone in accordance with Example 1. […] As described in Example 1, serum chemistry tests were performed at scheduled intervals during the treatment period to monitor various parameters, including biomarkers of liver function such as alanine transaminase (ALT), aspartate transaminase (AST), bilirubin, alkaline phosphate (ALP), and gamma-glutamyl transferase (GGT).
The patient continued to receive the full target dose of 2403 mg/day. While receiving the full target dose, the patient was monitored for AST, ALT, and bilirubin levels.
In one patient, study drug dose was reduced to 1602 mg/day for the remainder of study participation (from Day 51 to Day 602), and the Grade 1 AST or ALT abnormality returned to Grade 0. For the second patient, study drug dose was reduced to 1602 mg/day and then increased to 2403 mg/day for remainder of study participation, and ALT returned to Grade 0. The third patient had study drug dose reduced to 801 mg/day, ultimately completing study at 1602 mg/day, at which time ALT returned to Grade 0. The remaining patients (46 patients) received no dose modification.

[4] = IPF patients, compassionate use; cited from earlier work

Question: What does the source list for Cc1ccc(=O)n(-c2ccccc2)c1 [pirfenidone, 5-methyl-1-phenyl-2-(1H)-pyridone]?
Answer: liver dysfunctions, hematologic abnormalities, allergic or shock reactions during treatment [1]: no liver dysfunctions, hematologic abnormalities, or allergic or shock reactions; gamma-glutamyl transferase [2]: Elevated gamma-glutamyl transferase has been observed in some patients receiving pirfenidone, without clinical liver impairment; Grade of ALT after dose modification ([3]; Grade 1 patient, dose reduced to 801 mg/day, completing study at 1602 mg/day): 0; Grade of AST or ALT abnormality after dose modification ([3]; Grade 1 patient, dose reduced to 1602 mg/day for remainder of study (Day 51 to Day 602)): 0; Grade of ALT after dose modification ([3]; Grade 1 patient, dose reduced to 1602 mg/day, then increased to 2403 mg/day for remainder of study): 0; Grade of elevation at end of study ([3]; Grade 2 patient continued on 2403 mg/day, history of steatosis, Grade 1 before treatment, dose reduced for unrelated reasons (rash, diarrhea)): 1 (>ULN-2.5 × ULN); Grade of AST elevation at the last documented assessment ([3]; Grade 2 patient, no dose modification, Grade 1 AST and ALT at baseline): 1 (>ULN-2.5 × ULN); Grade of liver function test at resolution ([3]; Grade 2 patient, continued full daily dose of 2403 mg/day): 0; transaminase levels after re-escalation ([3]; Grade 2 patient, treatment temporarily discontinued for acute cerebral artery occlusion, escalated back to 2403 mg/day): returned to normal; Grade of abnormality at last documented values ([3]; Grade 3 patient with Grade 1 at screening and/or baseline, discontinued for lung transplant): 1 (>ULN-2.5 × ULN); AST and ALT elevations at the last documented value ([3]; Grade 3 patient with Grade 1 at screening and/or baseline, study drug interrupted, then discontinued): normalized; patients developing a Grade 2 liver function test abnormality in AST and/or ALT levels ([3]; after pirfenidone 2403 mg/day): Fifteen; patients developing Grade 3 liver function abnormality in AST and/or ALT levels ([3]; after pirfenidone administration): Four; patients exhibiting a Grade 1 elevation in AST or ALT levels after pirfenidone administration ([3]; of 345 IPF patients, 2403 mg/day, patients without a baseline liver function abnormality): 49 patients; patients with Grade 1 liver function test elevation having a treatment emergent adverse event of increased AST or ALT ([3]; of the 49 Grade 1 patients): three; patients with Grade 2 abnormality with reported treatment emergent adverse events of increased AST or ALT or hepatitis ([3]; of the fifteen Grade 2 patients): 12 patients; patients who discontinued study drug for elevated liver function tests ([3]; of the four Grade 3 patients): Two; patients who discontinued treatment due to abnormal liver function tests in AST and/or ALT levels ([3]; of the twelve Grade 2 patients with adverse event, Grade 2 AST coincided with Grade 3 ALT): One; outcome of rechallenge with the full dose ([3]; one of the seven Grade 2 patients with permanent dose reduction, rechallenged at 2403 mg/day): recurrence of Grade 2 elevation in ALT levels; transaminases at study completion ([3]; seven Grade 2 patients with permanent dose reduction (3 at 801 mg/day, 4 at 1602 mg/day)): resolution of transaminases, except for one patient that had a Grade 1 elevation at study completion; liver enzymes at study completion ([3]; two Grade 2 patients, temporary dose reduction or discontinuation, rechallenged and escalated back to 2403 mg/day): normal liver enzymes; resolution of abnormalities after discontinuation ([3]; two Grade 3 patients who discontinued for elevated liver function tests, Grade 2 and Grade 3 last documented): had not resolved; adverse events in hematology or blood chemistry [4]: No adverse events in hematology or blood chemistry

From US8592462B2, “Pirfenidone treatment for patients with atypical liver function” (Intermune, Inc., priority 2008, dated 2013)
